Converted amounts (≈) assume the structure as drawn. Read-outs that look alike come from different tables or passages of the source.
Key:
[1] = hepatic microsome stability; type: in vitro ADME; conditions: for remaining at 1 h: liver microsomes, read-out: Hepatic Microsome Stability % remaining after 1 h
Description: (§1) Pharmacokinetic data were obtained for compound 1o at the Sanford-Burnham Medical Research Institute according to established procedures. Compound solubility in an aqueous solution was measured using an automated kinetic solubility method. The concentration of the compound in a saturated pH-buffered aqueous solution was determined via UV absorbance (250–498 nm) and compared with the spectra of a precipitation-free reference solution. The plasma stability of the compound was determined at a single concentration using species-specific plasma. The percentage of parent compound remaining after 3 h was determined via LC-MS/MS. The percentage of compound 1o bound to plasma proteins was determined through rapid equilibrium dialysis and quantified via LC-MS/MS. Metabolic stability of the compound was determined at a single concentration using species-specific liver microsomes that contained cytochrome P450s, flavin-monooxygenases, carboxyl-esterases, epoxide hydrolases, and other drug-metabolizing enzymes. The quantification was carried out via LC-MS/MS. Membrane permeability of compound 1o was measured using an in vitro model for the passive transport from the gastrointestinal tract into the blood system. A double-sink parallel artificial membrane permeability assay PAMPA, in a 96-well format was employed.

[2] = test system: P. berghei asexual stages; experiment: ex vivo drug assay (luciferase), asexual stages; type: cell-based; conditions: Plasmodium berghei, 24 h, read-out: IC50 against P. berghei ex vivo
Description: Plates frozen at −80 °C were thawed at 37 °C. The cells were lysed at room temperature in 10 μl 1x luciferin lysis buffer (Luciferase Cell Culture Lysis 5 × reagent, Promega), and 100 μl luciferase assay substrate was added to each well (Luciferase Assay System, Promega). Luciferase activity was measured on a luminescence plate reader (Mithras LB940 luminometer, Berthold Technologies). The mean of the luciferase activity was calculated for each technical triplicate and normalized as follows: (Lucx−LucRBC)/(Lucsolvent−LucRBC) with Lucx and Lucsolvent=mean luciferase activity for parasites incubated with compound x and with solvent (DMSO for 1o and PBS for MB), respectively, and LucRBC=mean luciferase activity of non-infected red blood cells (background). IC50 values were calculated using Prism (GraphPad, log(inhibitor) versus normalized response—variable slope) in three independent experiments for the P. falciparum gametocyte assay and five for the P. berghei ex vivo drug assay.
The animal experiments described in this part were performed at the Institut de Biologie Moléculaire et Cellulaire (Strasbourg, France), using facilities and protocols adhering to national regulations of laboratory animal welfare in France. […] Parasitaemia was monitored via FACS analysis (FACSCalibur, BD Bioscience). […]

P. falciparum NF54 = experiment: IC50 speed assay; type: cell-based, Plasmodium falciparum; conditions: for IC50: Plasmodium falciparum, mean±s.d., three biological replicates
Description: To assess the rapidity of growth inhibition induced by the steroid compounds, the so-called IC50 speed assay[16] was conducted for compound 1o on P. falciparum NF54 (Fig. 2a,b).

in vivo = experiment: in vivo; set-up: species or system C57BL/6 mice; conditions: C57BL/6, mouse
Description: (§2) The compound was applied at an accumulative dose of 100 mg kg^−1 (per os (p.o.). as well as intraperitoneally (i.p.)). The first application was 5 mg kg^−1, 2 h later 15 mg kg^−1, 2 h later 30 mg kg^−1 and again 2 h later 50 mg kg^−1. […] Moreover, we performed pharmacokinetics studies in mice, dosing i.v., i.p. and p.o. (Supplementary Table 5). […] In contrast, high exposure and sustained levels of ∼2 μM were obtained after i.p. dosing at 100 mg kg^−1.
Parameter (n=3/time point)
Supplementary Table 5. Mouse pharmacokinetics of compound 1o.

[3] = acute toxicity in vivo model; set-up: species or system mice; conditions: accumulative dose 100 mg kg−1 (5, 15, 30, 50 mg kg−1 at 2 h intervals), p.o. and i.p.
Description: as §2
In addition, cytotoxicity tests with compound 1o were carried out on immortalized human hepatocytes, Fa2N-4 cells, resulting in an LC50>50 μM. The best compound 1o has furthermore been tested in an acute toxicity in vivo model at the Swiss Tropical Institute, Basel.

plasma stability = type: in vitro ADME; conditions: for remaining at 3 h: plasma, read-out: Plasma Stability % remaining after 3 h
Description: as §1

[4] = aqueous kinetic solubility; type: physicochemical; conditions: kinetic from dmso stock
Description: as §1

COc1ccc2c(c1)CCC1C2CC[C@@]2(C)C1CC[C@H]2NCc1cc2ccccc2cc1O (stereo partly drawn) [1o]
Hepatic Microsome Stability % remaining after 1 h ([1]; Human): ~38%
Hepatic Microsome Stability % remaining after 1 h ([1]; Mouse): ~38%
remaining at 1 h ([1]; human): 38.5%
remaining at 1 h ([1]; mouse): 38.5%
IC50 [2]: 3.1 ± 2.4 nM
speed of action (IC50 shift across 24, 48, 72 h) (P. falciparum NF54): no significant IC50 shifts
IC50 (P. falciparum NF54; NF54, read-out: IC50 24 h, 24 h compound incubation): 2.9 ± 0.2 nM
IC50 (P. falciparum NF54; NF54, 48 h compound incubation, read-out: IC50 48 h): 3.4 ± 0.2 nM
IC50 (P. falciparum NF54; NF54, 72 h compound incubation, read-out: IC50 72 h): 2.7 ± 0.4 nM
AUC(0-t) (in vivo; ip, 100 mg/kg): 13000 ng·h/mL
Cmax (in vivo; ip, 100 mg/kg): 850 ng/mL
Tmax (in vivo; ip, 100 mg/kg): 3 h
bioavailability (in vivo; ip, 100 mg/kg): 24%
half-life (in vivo; ip, 100 mg/kg): > 8 h
AUC(0-t) (in vivo; iv, 1 mg/kg): 567 ng·h/mL
Vd (in vivo; iv, 1 mg/kg): 6.4 L/kg
clearance (in vivo; iv, 1 mg/kg): 29.6 mL/min/kg
half-life (in vivo; iv, 1 mg/kg): > 8 h
AUC(0-t) (in vivo; po, 100 mg/kg): 622 ng·h/mL
Cmax (in vivo; po, 100 mg/kg): 43 ng/mL
Tmax (in vivo; po, 100 mg/kg): 8.25 h
bioavailability (in vivo; po, 100 mg/kg): < 5%
half-life (in vivo; po, 100 mg/kg): > 8 h
acute toxicity symptoms [3]: No acute toxicity symptoms were observed
Plasma Stability % remaining after 3 h (plasma stability; Human): 62%
Plasma Stability % remaining after 3 h (plasma stability; Mouse): 58%
remaining at 3 h (plasma stability; human): 62.5%
remaining at 3 h (plasma stability; mouse): 58.9%
solubility ([4]; Pion's buffer, aqueous buffer, pH 5.0, read-out: Aqueous Solubility (Pion's Buffer)): 0.26 µg/mL (≈ 0.589 µM)
solubility ([4]; Pion's buffer, pH 6.2, aqueous buffer, read-out: Aqueous Solubility (Pion's Buffer)): 0.38 µg/mL (≈ 0.86 µM)
solubility ([4]; Pion's buffer, pH 7.4, aqueous buffer, read-out: Aqueous Solubility (Pion's Buffer)): 0.3 µg/mL (≈ 0.679 µM)
solubility kinetic ([4]; pH-buffered aqueous solution, aqueous buffer, across a range of pH): < 2.3 µM
solubility ([4]; pH-buffered aqueous solution, aqueous buffer, across a range of pH, read-out: aqueous solubility): < 1 µg/mL
